Assay results taken from patent US9878977B2, “N-((3,4,5-trimethoxystyryl)aryl)cinnamamide compounds as potential anticancer agents and process for the preparation thereof” (COUNCIL OF SCIENTIFIC & INDUSTRIAL RESEARCH, priority 2014, dated 2018).
Read-outs that look alike come from different tables or passages of the source.

Key:
K562 = assay: SRB anti-proliferative assay, K562; format: cell-based, Human
Description: (§1) The synthesized N-(3,4,5-trimethoxystyryl)aryl)cinnamamides were evaluated for their anti-proliferative activity in selected human cancer cell lines of breast cancer (MCF-7), prostate cancer (DU-145), lung cancer (Hop-62), cervical cancer (Hela), leukemia (K562), ovarian cancer (SK-OV-3), colon cancer (Colo-205), pancreatic (MAIPA-CA-2) by using sulforhodamine B (SRB) method (Vichai, V.; Kirtikara, K. Nat. Protoc. 2006, 1, 1112). […] CA-4 was used as the reference compound.

MAIPA-CA-2 = assay: SRB anti-proliferative assay, MAIPA-CA-2; format: cell-based, Human; details: read-out: GI50 MAIPA-CA-2
Description: as §1

SK-OV-3 = assay: SRB anti-proliferative assay, SK-OV-3; format: cell-based, Human
Description: as §1

Colo-205 = assay: SRB anti-proliferative assay, Colo-205; format: cell-based, Human
Description: as §1

Hop-62 = assay: SRB anti-proliferative assay, Hop-62; format: cell-based, Human
Description: as §1

Hela = assay: SRB anti-proliferative assay, Hela; format: cell-based, Human; details: read-out: GI50 Hela
Description: as §1

MCF-7 = assay: SRB anti-proliferative assay, MCF-7; format: cell-based, Human
Description: as §1

DU-145 = assay: SRB anti-proliferative assay, DU-145; format: cell-based, Human
Description: as §1

tubulin = details: reported in J. Med. Chem. 2008, 51, 6211; cited from earlier work
[1] = K562, Human leukemia, concentration of drug causing 50% inhibition of cell growth, read-out: GI50 K562
[2] = Human pancreatic, concentration of drug causing 50% inhibition of cell growth
[3] = SK-OV-3, Human ovarian cancer, concentration of drug causing 50% inhibition of cell growth, read-out: GI50 SK-OV-3
[4] = COLO 205, Human colon cancer, concentration of drug causing 50% inhibition of cell growth, read-out: GI50 Colo-205
[5] = HOP-62, Human lung cancer, concentration of drug causing 50% inhibition of cell growth, read-out: GI50 Hop-62
[6] = Human cervical cancer, concentration of drug causing 50% inhibition of cell growth
[7] = MCF7, Human breast cancer, concentration of drug causing 50% inhibition of cell growth, read-out: GI50 MCF-7
[8] = DU-145, Human prostate cancer, concentration of drug causing 50% inhibition of cell growth, read-out: GI50 DU-145
[9] = Homo sapiens, K562, read-out: GI50 K562
[10] = Homo sapiens, SK-OV-3, read-out: GI50 SK-OV-3
[11] = Homo sapiens, COLO 205, read-out: GI50 Colo-205
[12] = Homo sapiens, HOP-62, read-out: GI50 Hop-62
[13] = Homo sapiens, MCF7, read-out: GI50 MCF-7
[14] = Homo sapiens, DU-145, read-out: GI50 DU-145

GI50 (K562; [1]) | GI50 (SK-OV-3; [3]) | GI50 (Colo-205; [4]) | GI50 (Hela; [6]) | GI50 (MCF-7; [7]) | GI50 (DU-145; [8]) | Structure (SMILES) | GI50 (MAIPA-CA-2; [2]) | GI50 (Hop-62; [5]) | inhibits tubulin polymerization, compared with CA-4 (tubulin) | GI50 (K562; [9]) | GI50 (MAIPA-CA-2; Homo sapiens) | GI50 (SK-OV-3; [10]) | GI50 (Colo-205; [11]) | GI50 (Hop-62; [12]) | GI50 (Hela; Homo sapiens) | GI50 (MCF-7; [13]) | GI50 (DU-145; [14])
93 nM | 96 nM | 98 nM | 90 nM | 60 nM | 72 nM | COc1cc(/C=C/C(=O)Nc2c(C=Cc3cc(OC)c(OC)c(OC)c3)ccc(OC)c2O)ccc1O [Compound 20t, (E)-N-(2-Hydroxy-3-methoxy-6-(3,4,5-trimethoxystyryl)phenyl)-3-(4-hydroxy-3-methoxyphenyl)acrylamide] | 98 nM | 79 nM |  |  |  |  |  |  |  |  | 
 |  |  |  |  |  | COc1cc(/C=C\c2ccc(OC)c(N)c2)cc(OC)c1 [Compound S3, (Z)-5-(3,5-dimethoxystyryl)-2-methoxyaniline] |  |  | stronger than CA-4 by five folds |  |  |  |  |  |  |  | 
94 nM | 99 nM | 99 nM | 7500 nM | 56 nM | 60 nM | COc1ccc(/C=C/C(=O)Nc2c(C=Cc3cc(OC)c(OC)c(OC)c3)ccc(OC)c2O)cc1OC [Compound 20s, (E)-3-(3,4-Dimethoxyphenyl)-N-(2-hydroxy-3-methoxy-6-(3,4,5-trimethoxystyryl)phenyl)acrylamide] | 29900 nM | 90 nM |  |  |  |  |  |  |  |  | 
 |  |  |  |  |  | COc1ccc(C=Cc2cc(OC)c(OC)c(OC)c2)c(NC(=O)/C=C/c2ccc(F)c(F)c2)c1O [Compound 20aa, (E)-3-(3,4-Difluorophenyl)-N-(2-hydroxy-3-methoxy-6-(3,4,5-trimethoxystyryl)phenyl)acrylamide] |  |  |  | 99 nM | 74000 nM | 29800 nM | 74900 nM | 43600 nM | 29200 nM | 31 nM | 45 nM
82 nM | 94 nM | 86 nM | 90 nM | 74 nM | 85 nM | COc1cc(/C=C/C(=O)Nc2c(C=Cc3cc(OC)c(OC)c(OC)c3)ccc(OC)c2O)ccc1N [Compound 20v, (E)-3-(4-Amino-3-methoxyphenyl)-N-(2-hydroxy-3-methoxy-6-(3,4,5-trimethoxystyryl)phenyl)acrylamide] | 97 nM | 35 nM |  |  |  |  |  |  |  |  | 
91 nM | 82 nM | 18000 nM | 78.7 nM | 83 nM | 85 nM | C=CCOc1cccc(/C=C/C(=O)Nc2c(C=Cc3cc(OC)c(OC)c(OC)c3)ccc(OC)c2O)c1 [Compound 20i, (E)-3-(3-(Allyloxy)phenyl)-N-(2-hydroxy-3-methoxy-6-(3,4,5-trimethoxystyryl)phenyl)acrylamide] | 98 nM | 60 nM |  |  |  |  |  |  |  |  | 
23500 nM | 47500 nM | 67600 nM | 24000 nM | 66 nM | 83 nM | COc1ccc(C=Cc2cc(OC)c(OC)c(OC)c2)c(NC(=O)/C=C/c2ccc(F)cc2)c1O [Compound 20r, (E)-3-(4-Fluorophenyl)-N-(2-hydroxy-3-methoxy-6-(3,4,5-trimethoxystyryl)phenyl)acrylamide] | 78100 nM | 43000 nM |  |  |  |  |  |  |  |  | 
96 nM | 7900 nM | 96 nM | 99 nM | 95 nM | 75 nM | COc1cc(/C=C/C(=O)Nc2c(C=Cc3cc(OC)c(OC)c(OC)c3)ccc(OC)c2O)ccc1[N+](=O)[O-] [Compound 20u, (E)-N-(2-Hydroxy-3-methoxy-6-(3,4,5-trimethoxystyryl)phenyl)-3-(3-methoxy-4-nitrophenyl)acrylamide] | 23500 nM | 84 nM |  |  |  |  |  |  |  |  | 
46800 nM | 52600 nM | > 100000 nM | 49200 nM | 19400 nM | 64700 nM | COc1ccc(/C=C/C(=O)Nc2c(C=Cc3cc(OC)c(OC)c(OC)c3)ccc(OC)c2O)cc1[N+](=O)[O-] [Compound 20y, (E)-N-(2-Hydroxy-3-methoxy-6-(3,4,5-trimethoxystyryl)phenyl)-3-(4-methoxy-3-nitrophenyl)acrylamide] | > 100000 nM | 71300 nM |  |  |  |  |  |  |  |  | 
 |  |  |  |  |  | COc1ccc(C=Cc2cc(OC)c(OC)c(OC)c2)c(NC(=O)/C=C/c2cccc(O)c2)c1O [Compound 20g, (E)-N-(2-Hydroxy-3-methoxy-6-(3,4,5-trimethoxystyryl)phenyl)-3-(3-hydroxyphenyl)acrylamide] |  |  |  | 94 nM | 98 nM | 97 nM | 13400 nM | 82 nM | 94.9 nM | 63 nM | 70 nM
 |  |  |  |  |  | COc1ccc(C=Cc2cc(OC)c(OC)c(OC)c2)c(NC(=O)/C=C/c2ccc([N+](=O)[O-])cc2)c1O [Compound 20o, (E)-N-(2-Hydroxy-3-methoxy-6-(3,4,5-trimethoxystyryl)phenyl)-3-(4-nitrophenyl)acrylamide] |  |  |  | 97 nM | 40800 nM | 17000 nM | 10300 nM | 61 nM | 15700 nM | 72 nM | 85 nM
89 nM | 97 nM | 89 nM | 91 nM | 50 nM | 79 nM | COc1ccc(/C=C/C(=O)Nc2c(C=Cc3cc(OC)c(OC)c(OC)c3)ccc(OC)c2O)cc1N [Compound 20z, (E)-3-(3-Amino-4-methoxyphenyl)-N-(2-hydroxy-3-methoxy-6-(3,4,5-trimethoxystyryl)phenyl)acrylamide] | 14300 nM | 44 nM |  |  |  |  |  |  |  |  | 
 |  |  |  |  |  | C#CCOc1cccc(/C=C/C(=O)Nc2c(C=Cc3cc(OC)c(OC)c(OC)c3)ccc(OC)c2O)c1 [Compound 20h, (E)-N-(2-Hydroxy-3-methoxy-6-(3,4,5-trimethoxystyryl)phenyl)-3-(3-(prop-2-ynyloxy)phenyl)acrylamide] |  |  |  | > 100000 nM | > 100000 nM | > 100000 nM | > 100000 nM | > 100000 nM | > 100000 nM | 11600 nM | 96400 nM
98 nM | 17600 nM | > 100000 nM | 18100 nM | 59500 nM | > 100000 nM | COc1cccc(/C=C/C(=O)Nc2c(C=Cc3cc(OC)c(OC)c(OC)c3)ccc(OC)c2O)c1 [Compound 20f, (E)-N-(2-Hydroxy-3-methoxy-6-(3,4,5-trimethoxystyryl)phenyl)-3-(3-methoxyphenyl)acrylamide] | 93900 nM | 65400 nM |  |  |  |  |  |  |  |  | 
23700 nM | 1800 nM | > 100000 nM | 15900 nM | 95 nM | 117 nM | COc1ccc(/C=C/C(=O)Nc2c(C=Cc3cc(OC)c(OC)c(OC)c3)ccc(OC)c2O)cc1O [Compound 20x, (E)-N-(2-hydroxy-3-methoxy-6-(3,4,5-trimethoxystyryl)phenyl)-3-(3-hydroxy-4-methoxyphenyl)acrylamide] | 46300 nM | 17100 nM |  |  |  |  |  |  |  |  | 
 |  |  |  |  |  | COc1ccc(C=Cc2cc(OC)c(OC)c(OC)c2)c(NC(=O)/C=C/c2ccc(C(F)(F)F)cc2)c1O [Compound 20n, (E)-N-(2-Hydroxy-3-methoxy-6-(3,4,5-trimethoxystyryl)phenyl)-3-(4-(trifluoromethyl)phenyl)acrylamide] |  |  |  | 58000 nM | > 100000 nM | > 100000 nM | > 100000 nM | > 100000 nM | > 100000 nM | 83700 nM | > 100000 nM
24900 nM | 62600 nM | > 100000 nM | 38800 nM | 55500 nM | 54100 nM | COc1ccc(C=Cc2cc(OC)c(OC)c(OC)c2)c(NC(=O)/C=C/c2ccc(Cl)cc2)c1O [Compound 20q, (E)-3-(4-Chlorophenyl)-N-(2-hydroxy-3-methoxy-6-(3,4,5-trimethoxystyryl)phenyl)acrylamide] | > 100000 nM | 79400 nM |  |  |  |  |  |  |  |  | 
 |  |  |  |  |  | COc1ccc(C=Cc2cc(OC)c(OC)c(OC)c2)c(NC(=O)/C=C/c2cc(OC)c(OC)c(OC)c2)c1O [Compound 20ab, (E)-N-(2-Hydroxy-3-methoxy-6-(3,4,5-trimethoxystyryl)phenyl)-3-(3,4,5-trimethoxyphenyl)acrylamide] |  |  |  | 28000 nM | 64500 nM | 20900 nM | 76000 nM | 24800 nM | 14900 nM | 79 nM | 95 nM
